ChEMBL document CHEMBL1151757, “Synthesis, radiosynthesis, and biological evaluation of fluorine-18-labeled 2beta-carbo(fluoroalkoxy)-3beta-(3'-((Z)-2-haloethenyl)phenyl)nortropanes: candidate radioligands for in vivo imaging of the serotonin transporter with positron emission tomography” (J Med Chem, 2008)

Columns and labels:
Pons [1] = assay: Drug uptake in anesthetized cynomolgus monkey brain pons after 27.5 mins postinjection; format: ADME, organism-based, Macaca fascicularis; settings: in vivo
Caudate [2] = assay: Drug uptake in anesthetized cynomolgus monkey brain caudate after 135 mins postinjection; format: ADME, organism-based, Macaca fascicularis, Caudate nucleus; settings: in vivo, 2.25 h
[3] = Drug uptake in anesthetized cynomolgus monkey brain cerebellum after 15.5 mins postinjection; format: ADME, organism-based, Macaca fascicularis; settings: in vivo
[4] = Ratio of drug uptake in medulla to cerebellum in anesthetized cynomolgus monkey after 135 mins postinjection; format: ADME, organism-based, Macaca fascicularis; settings: in vivo, 2.25 h
[5] = Ratio of drug uptake in frontal lobe to cerebellum in anesthetized cynomolgus monkey after 95 mins postinjection; format: ADME, organism-based, Macaca fascicularis; settings: in vivo
[6] = Drug uptake in anesthetized cynomolgus monkey brain cerebellum after 155 mins postinjection; format: ADME, organism-based, Macaca fascicularis; settings: in vivo
Medulla [7] = assay: Drug uptake in anesthetized cynomolgus monkey brain medulla after 35 mins postinjection; format: ADME, organism-based, Macaca fascicularis; settings: in vivo
[8] = Drug uptake in anesthetized cynomolgus monkey brain cerebellum after 85 mins postinjection; format: ADME, organism-based, Macaca fascicularis; settings: in vivo
Putamen [9] = assay: Drug uptake in anesthetized cynomolgus monkey brain putamen after 155 mins postinjection; format: ADME, organism-based, Macaca fascicularis; settings: in vivo
[10] = Drug uptake in anesthetized cynomolgus monkey brain cerebellum after 6.5 mins postinjection; format: ADME, organism-based, Macaca fascicularis; settings: in vivo
[11] = Drug uptake in anesthetized cynomolgus monkey brain occipital lobe after 145 mins postinjection; format: ADME, organism-based, Macaca fascicularis; settings: in vivo
Putamen [12] = assay: Drug uptake in anesthetized cynomolgus monkey brain putamen after 115 mins postinjection; format: ADME, organism-based, Macaca fascicularis; parameters: unit not given here; settings: in vivo
Medulla [13] = assay: Drug uptake in anesthetized cynomolgus monkey brain medulla after 175 mins postinjection; format: ADME, organism-based, Macaca fascicularis; settings: in vivo
[14] = Drug uptake in anesthetized cynomolgus monkey brain cerebellum after 2.5 mins postinjection; format: ADME, organism-based, Macaca fascicularis; settings: in vivo
Thalamus [15] = assay: Drug uptake in anesthetized cynomolgus monkey brain thalamus after 65 mins postinjection; format: ADME, organism-based, Macaca fascicularis; parameters: unit not given here; settings: in vivo
Pons [16] = assay: Drug uptake in anesthetized cynomolgus monkey brain pons after 85 mins postinjection; format: ADME, organism-based, Macaca fascicularis; settings: in vivo
Caudate [17] = assay: Drug uptake in anesthetized cynomolgus monkey brain caudate after 65 mins postinjection; format: ADME, organism-based, Macaca fascicularis, Caudate nucleus; settings: in vivo
Caudate [18] = assay: Drug uptake in anesthetized cynomolgus monkey brain caudate after 12.5 mins postinjection; format: ADME, organism-based, Macaca fascicularis, Caudate nucleus; settings: in vivo
[19] = Drug uptake in anesthetized cynomolgus monkey brain frontal lobe after 22.5 mins postinjection; format: ADME, organism-based, Macaca fascicularis; settings: in vivo, 0.375 h
[20] = Ratio of drug uptake in caudate to cerebellum in anesthetized cynomolgus monkey after 155 mins postinjection; format: ADME, organism-based, Macaca fascicularis; settings: in vivo
[21] = Drug uptake in anesthetized cynomolgus monkey brain frontal lobe after 1.5 mins postinjection; format: ADME, organism-based, Macaca fascicularis; settings: in vivo, 0.025 h
[22] = Ratio of drug uptake in frontal lobe to cerebellum in anesthetized cynomolgus monkey after 3.5 mins postinjection; format: ADME, organism-based, Macaca fascicularis; settings: in vivo
Caudate [23] = assay: Drug uptake in anesthetized cynomolgus monkey brain caudate after 22.5 mins postinjection; format: ADME, organism-based, Macaca fascicularis, Caudate nucleus; settings: in vivo, 0.375 h
Pons [24] = assay: Drug uptake in anesthetized cynomolgus monkey brain pons after 175 mins postinjection; format: ADME, organism-based, Macaca fascicularis; settings: in vivo
[25] = Drug uptake in anesthetized cynomolgus monkey brain cerebellum after 35 mins postinjection; format: ADME, organism-based, Macaca fascicularis; settings: in vivo
[26] = Ratio of drug uptake in putamen to cerebellum in anesthetized cynomolgus monkey after 0.5 mins postinjection; format: ADME, organism-based, Macaca fascicularis; settings: in vivo
[27] = Drug uptake in anesthetized cynomolgus monkey brain occipital lobe after 155 mins postinjection; format: ADME, organism-based, Macaca fascicularis; settings: in vivo
Caudate [28] = assay: Drug uptake in anesthetized cynomolgus monkey brain caudate after 0.5 mins postinjection; format: ADME, organism-based, Macaca fascicularis, Caudate nucleus; settings: in vivo
[29] = Drug uptake in anesthetized cynomolgus monkey brain cerebellum after 135 mins postinjection; format: ADME, organism-based, Macaca fascicularis; settings: in vivo, 2.25 h
Midbrain [30] = assay: Drug uptake in anesthetized cynomolgus monkey brain midbrain after 175 mins postinjection; format: ADME, organism-based, Macaca fascicularis; settings: in vivo
Pons [31] = assay: Drug uptake in anesthetized cynomolgus monkey brain pons after 6.5 mins postinjection; format: ADME, organism-based, Macaca fascicularis; settings: in vivo
Midbrain [32] = assay: Drug uptake in anesthetized cynomolgus monkey brain midbrain after 95 mins postinjection; format: ADME, organism-based, Macaca fascicularis; parameters: unit not given here; settings: in vivo
[33] = Drug uptake in anesthetized cynomolgus monkey brain frontal lobe after 125 mins postinjection; format: ADME, organism-based, Macaca fascicularis; settings: in vivo
[34] = Ratio of drug uptake in medulla to cerebellum in anesthetized cynomolgus monkey after 95 mins postinjection; format: ADME, organism-based, Macaca fascicularis; settings: in vivo
[35] = Ratio of drug uptake in pons to cerebellum in anesthetized cynomolgus monkey after 145 mins postinjection; format: ADME, organism-based, Macaca fascicularis; settings: in vivo
[36] = Drug uptake in anesthetized cynomolgus monkey brain occipital lobe after 115 mins postinjection; format: ADME, organism-based, Macaca fascicularis; settings: in vivo
Putamen [37] = assay: Drug uptake in anesthetized cynomolgus monkey brain putamen after 12.5 mins postinjection; format: ADME, organism-based, Macaca fascicularis; parameters: unit not given here; settings: in vivo
Medulla [38] = assay: Drug uptake in anesthetized cynomolgus monkey brain medulla after 4.5 mins postinjection; format: ADME, organism-based, Macaca fascicularis; settings: in vivo, 0.075 h
Midbrain [39] = assay: Drug uptake in anesthetized cynomolgus monkey brain midbrain after 15.5 mins postinjection; format: ADME, organism-based, Macaca fascicularis; parameters: unit not given here; settings: in vivo
[40] = Ratio of drug uptake in putamen to cerebellum in anesthetized cynomolgus monkey after 9.5 mins postinjection; format: ADME, organism-based, Macaca fascicularis; settings: in vivo
Medulla [41] = assay: Drug uptake in anesthetized cynomolgus monkey brain medulla after 145 mins postinjection; format: ADME, organism-based, Macaca fascicularis; settings: in vivo
Putamen [42] = assay: Drug uptake in anesthetized cynomolgus monkey brain putamen after 15.5 mins postinjection; format: ADME, organism-based, Macaca fascicularis; parameters: unit not given here; settings: in vivo
Midbrain [43] = assay: Drug uptake in anesthetized cynomolgus monkey brain midbrain after 0.5 mins postinjection; format: ADME, organism-based, Macaca fascicularis; parameters: unit not given here; settings: in vivo
[44] = Ratio of drug uptake in caudate to cerebellum in anesthetized cynomolgus monkey after 55 mins postinjection; format: ADME, organism-based, Macaca fascicularis; settings: in vivo
Midbrain [45] = assay: Drug uptake in anesthetized cynomolgus monkey brain midbrain after 225 mins postinjection; format: ADME, organism-based, Macaca fascicularis; settings: in vivo, 3.75 h
[46] = Ratio of drug uptake in midbrain to cerebellum in anesthetized cynomolgus monkey after 85 mins postinjection; format: ADME, organism-based, Macaca fascicularis; settings: in vivo
Midbrain [47] = assay: Drug uptake in anesthetized cynomolgus monkey brain midbrain after 2.5 mins postinjection; format: ADME, organism-based, Macaca fascicularis; parameters: unit not given here; settings: in vivo
Putamen [48] = assay: Drug uptake in anesthetized cynomolgus monkey brain putamen after 45 mins postinjection; format: ADME, organism-based, Macaca fascicularis; parameters: unit not given here; settings: in vivo, 0.75 h
[49] = Drug uptake in anesthetized cynomolgus monkey brain occipital lobe after 3.5 mins postinjection; format: ADME, organism-based, Macaca fascicularis; settings: in vivo
Midbrain [50] = assay: Drug uptake in anesthetized cynomolgus monkey brain midbrain after 4.5 mins postinjection; format: ADME, organism-based, Macaca fascicularis; parameters: unit not given here; settings: in vivo, 0.075 h
[51] = Ratio of drug uptake in medulla to cerebellum in anesthetized cynomolgus monkey after 12.5 mins postinjection; format: ADME, organism-based, Macaca fascicularis; settings: in vivo
[52] = Drug uptake in anesthetized cynomolgus monkey brain occipital lobe after 235 mins postinjection; format: ADME, organism-based, Macaca fascicularis; settings: in vivo
[53] = Drug uptake in anesthetized cynomolgus monkey brain occipital lobe after 85 mins postinjection; format: ADME, organism-based, Macaca fascicularis; settings: in vivo
[54] = Drug uptake in anesthetized cynomolgus monkey brain frontal lobe after 225 mins postinjection; format: ADME, organism-based, Macaca fascicularis; settings: in vivo, 3.75 h
[55] = Drug uptake in anesthetized cynomolgus monkey brain frontal lobe after 65 mins postinjection; format: ADME, organism-based, Macaca fascicularis; settings: in vivo
Putamen [56] = assay: Drug uptake in anesthetized cynomolgus monkey brain putamen after 175 mins postinjection; format: ADME, organism-based, Macaca fascicularis; settings: in vivo
[57] = Drug uptake in anesthetized cynomolgus monkey brain frontal lobe after 2.5 mins postinjection; format: ADME, organism-based, Macaca fascicularis; settings: in vivo
[58] = Drug uptake in anesthetized cynomolgus monkey brain cerebellum after 9.5 mins postinjection; format: ADME, organism-based, Macaca fascicularis; settings: in vivo
Thalamus [59] = assay: Drug uptake in anesthetized cynomolgus monkey brain thalamus after 185 mins postinjection; format: ADME, organism-based, Macaca fascicularis; settings: in vivo
[60] = Ratio of drug uptake in medulla to cerebellum in anesthetized cynomolgus monkey after 35 mins postinjection; format: ADME, organism-based, Macaca fascicularis; settings: in vivo
[61] = Ratio of drug uptake in medulla to cerebellum in anesthetized cynomolgus monkey after 195 mins postinjection; format: ADME, organism-based, Macaca fascicularis; settings: in vivo, 3.25 h
[62] = Ratio of drug uptake in pons to cerebellum in anesthetized cynomolgus monkey after 175 mins postinjection; format: ADME, organism-based, Macaca fascicularis; settings: in vivo
Putamen [63] = assay: Drug uptake in anesthetized cynomolgus monkey brain putamen after 205 mins postinjection; format: ADME, organism-based, Macaca fascicularis; settings: in vivo
[64] = Ratio of drug uptake in occipital lobe to cerebellum in anesthetized cynomolgus monkey after 195 mins postinjection; format: ADME, organism-based, Macaca fascicularis; settings: in vivo, 3.25 h
[65] = Ratio of drug uptake in occipital lobe to cerebellum in anesthetized cynomolgus monkey after 205 mins postinjection; format: ADME, organism-based, Macaca fascicularis; settings: in vivo
[66] = Ratio of drug uptake in frontal lobe to cerebellum in anesthetized cynomolgus monkey after 195 mins postinjection; format: ADME, organism-based, Macaca fascicularis; settings: in vivo, 3.25 h
[67] = Ratio of drug uptake in occipital lobe to cerebellum in anesthetized cynomolgus monkey after 125 mins postinjection; format: ADME, organism-based, Macaca fascicularis; settings: in vivo

O=C(OCCC[18F])C1C2CCC(CC1c1cccc(/C=C\Br)c1)N2 (centres undefined)
Drug uptake (Pons [1]): 5.03
Drug uptake (Caudate [2]): 4.43
Drug uptake [3]: 5.62
Ratio [4]: 1.7
Ratio [5]: 0.9
Drug uptake [6]: 2.62
Drug uptake (Medulla [7]): 5.92
Drug uptake [8]: 3.83
Drug uptake (Putamen [9]): 4.38
Drug uptake [10]: 5.03
Drug uptake [11]: 3.5
Drug uptake (Putamen [12]): 5.03
Drug uptake (Medulla [13]): 4.26
Drug uptake [14]: 1.41
Drug uptake (Thalamus [15]): 5.39
Drug uptake (Pons [16]): 4.59
Drug uptake (Caudate [17]): 5.22
Drug uptake (Caudate [18]): 4.23
Drug uptake [19]: 3.74
Ratio [20]: 1.6
Drug uptake [21]: 0.25
Ratio [22]: 0.5
Drug uptake (Caudate [23]): 4.63
Drug uptake (Pons [24]): 3.78
Drug uptake [25]: 5.43
Ratio [26]: 0.8
Drug uptake [27]: 3.27
Drug uptake (Caudate [28]): 0.01
Drug uptake [29]: 2.89
Drug uptake (Midbrain [30]): 4.91
Drug uptake (Pons [31]): 3.6
Drug uptake (Midbrain [32]): 5.79
Drug uptake [33]: 2.93
Ratio [34]: 1.5
Ratio [35]: 1.6
Drug uptake [36]: 3.72
Drug uptake (Putamen [37]): 5.25
Drug uptake (Medulla [38]): 3.95
Drug uptake (Midbrain [39]): 5.7
Ratio [40]: 0.9
Drug uptake (Medulla [41]): 4.91
Drug uptake (Putamen [42]): 5.53
Drug uptake (Midbrain [43]): 0.01
Ratio [44]: 1.1
Drug uptake (Midbrain [45]): 4.29
Ratio [46]: 1.5
Drug uptake (Midbrain [47]): 1.48
Drug uptake (Putamen [48]): 6.05
Drug uptake [49]: 1.51
Drug uptake (Midbrain [50]): 3.08
Ratio [51]: 1
Drug uptake [52]: 2.53
Drug uptake [53]: 4.19
Drug uptake [54]: 1.97
Drug uptake [55]: 3.69
Drug uptake (Putamen [56]): 4.1
Drug uptake [57]: 0.79
Drug uptake [58]: 5.92

O=C(OCC[18F])C1C2CCC(CC1c1ccc(/C=C\I)cc1)N2 (centres undefined)
Drug uptake (Thalamus [59]): 3.8
Drug uptake (Pons [1]): 2.58
Drug uptake (Caudate [2]): 3.1
Ratio [60]: 1.4
Ratio [5]: 0.9
Drug uptake [10]: 1.79
Drug uptake (Putamen [12]): 4.34
Drug uptake (Medulla [13]): 3.52
Drug uptake (Thalamus [15]): 3.92
Drug uptake (Pons [16]): 3.38
Drug uptake (Caudate [17]): 2.87
Ratio [61]: 2.6
Ratio [62]: 2.7
Ratio [22]: 0.5
Drug uptake (Caudate [23]): 2.05
Drug uptake [27]: 2.02
Drug uptake (Caudate [28]): 0
Drug uptake (Putamen [63]): 3.94
Drug uptake (Midbrain [30]): 4.61
Drug uptake (Pons [31]): 1.36
Drug uptake (Midbrain [32]): 4.6
Ratio [64]: 1.4
Ratio [34]: 1.8
Ratio [35]: 2.3
Drug uptake (Putamen [37]): 2.59
Drug uptake (Medulla [38]): 1.36
Drug uptake (Midbrain [39]): 2.58
Drug uptake (Medulla [41]): 3.61
Drug uptake (Putamen [42]): 2.71
Drug uptake (Midbrain [43]): 0
Drug uptake (Midbrain [45]): 4.51
Drug uptake (Midbrain [47]): 0.4
Drug uptake (Putamen [48]): 3.8
Drug uptake (Midbrain [50]): 1.23
Ratio [65]: 1.4
Ratio [66]: 1.3
Drug uptake [54]: 1.56
Drug uptake [55]: 2.03
Drug uptake (Putamen [56]): 3.1
Ratio [67]: 1.3
Drug uptake [57]: 0.24
